Key:
Type in all cases: in vivo
Chilo suppressalis = assay: Activity against Chilo suppressalis (striped rice stemborer), artificial diet, L2 larvae; conditions: 144 h, application rate 200 ppm, 6 days after infestation, read-out: control in at least one of the three categories (mortality, anti-feedant effect, or growth inhibition)
Method: Example B1: Activity Against Chilo suppressalis (Striped Rice Stemborer)
24-well microtiter plates with artificial diet were treated with aqueous test solutions prepared from 10′000 ppm DMSO stock solutions by pipetting. After drying, the plates were infested with L2 larvae (6-8 per well). The samples were assessed for mortality, anti-feeding effect, and growth inhibition in comparison to untreated samples 6 days after infestation. Control of Chilo suppressalis by a test sample is given when at least one of the categories mortality, anti-feedant effect, and growth inhibition is higher than the untreated sample.

Diabrotica balteata = assay: Activity against Diabrotica balteata (corn root worm), maize sprouts, L2 larvae; conditions: 96 h, application rate 200 ppm, 4 days after infestation, read-out: control in at least one of the two categories (mortality or growth inhibition)
Method: Example B2: Activity Against Diabrotica Balteata (Corn Root Worm)
Maize sprouts placed onto an agar layer in 24-well microtiter plates were treated with aqueous test solutions prepared from 10′000 ppm DMSO stock solutions by spraying. After drying, the plates were infested with L2 larvae (6 to 10 per well). The samples were assessed for mortality and growth inhibition in comparison to untreated samples 4 days after infestation.

Euschistus heros = assay: Activity against Euschistus heros (neotropical brown stink bug), soybean leaves, N2 nymphs; conditions: 120 h, application rate 200 ppm, 5 days after infestation, read-out: effect in at least one of the two categories (mortality or growth inhibition)
Method: Example B3: Activity Against Euschistus heros (Neotropical Brown Stink Bug)
Soybean leaves on agar in 24-well microtiter plates were sprayed with aqueous test solutions prepared from 10′000 ppm DMSO stock solutions. After drying the leaves were infested with N2 nymphs. The samples were assessed for mortality and growth inhibition in comparison to untreated samples 5 days after infestation.

Myzus persicae [1] = assay: Activity against Myzus persicae (green peach aphid), feeding/contact activity; conditions: 144 h, application rate 200 ppm, 6 days after infestation
Method: Example B5: Activity Against Myzus persicae (Green Peach Aphid). Feeding/Contact Activity
Sunflower leaf discs were placed onto agar in a 24-well microtiter plate and sprayed with aqueous test solutions prepared from 10′000 ppm DMSO stock solutions. After drying, the leaf discs were infested with an aphid population of mixed ages. The samples were assessed for mortality 6 days after infestation.

Myzus persicae [2] = assay: Activity against Myzus persicae (green peach aphid), intrinsic activity; conditions: 120 h, test rate 12 ppm, 5 days after infestation
Excerpt: Example B6: Activity Against Myzus persicae (Green Peach Aphid). Intrinsic Activity
Test compounds prepared from 10′000 ppm DMSO stock solutions were applied by pipette into 24-well microtiter plates and mixed with sucrose solution. The plates were closed with a stretched Parafilm. A plastic stencil with 24 holes was placed onto the plate and infested pea seedlings were placed directly on the Parafilm. The infested plate was closed with a gel blotting paper and another plastic stencil and then turned upside down. The samples were assessed for mortality 5 days after infestation.

Plutella xylostella = assay: Activity against Plutella xylostella (diamond back moth), artificial diet, eggs; conditions: 192 h, application rate 200 ppm, 8 days after infestation, read-out: control in at least one of the two categories (mortality or growth inhibition)
Method: Example B7: Activity Against Plutella xylostella (Diamond Back Moth)
24-well microtiter plates with artificial diet were treated with aqueous test solutions prepared from 10′000 ppm DMSO stock solutions by pipetting. After drying, Plutella eggs were pipetted through a plastic stencil onto a gel blotting paper and the plate was closed with it. The samples were assessed for mortality and growth inhibition in comparison to untreated samples 8 days after infestation.

Spodoptera littoralis = assay: Activity against Spodoptera littoralis (Egyptian cotton leaf worm), cotton leaf discs, L1 larvae; conditions: foliar, 72 h, application rate 200 ppm, 3 days after infestation, read-out: control in at least one of the three categories (mortality, anti-feedant effect, or growth inhibition)
Method: Example B8: Activity Against Spodoptera littoralis (Egyptian Cotton Leaf Worm)
Cotton leaf discs were placed onto agar in 24-well microtiter plates and sprayed with aqueous test solutions prepared from 10′000 ppm DMSO stock solutions. After drying the leaf discs were infested with five L1 larvae. The samples were assessed for mortality, anti-feeding effect, and growth inhibition in comparison to untreated samples 3 days after infestation. Control of Spodoptera littoralis by a test sample is given when at least one of the categories mortality, anti-feedant effect, and growth inhibition is higher than the untreated sample.

CCn1nc(-n2ncnc2[C@H](C)NC(=O)c2cc(Cl)cc(C(F)(F)F)c2)ccc1=O [P16, 3-chloro-N-[(1S)-1-[2-(1-ethyl-6-oxo-pyridazin-3-yl)-1,2,4-triazol-3-yl]ethy]-5-(trifluoromethyl)benzamide]
≥ 80%: percent control (mortality, anti-feedant effect or growth inhibition) at 200 ppm (Chilo suppressalis) | percent control (mortality or growth inhibition) at 200 ppm (Diabrotica balteata) | percent effect (mortality or growth inhibition) at 200 ppm (Euschistus heros) | mortality at 200 ppm (Myzus persicae [1]) | mortality at 12 ppm (Myzus persicae [2]) | percent control (mortality or growth inhibition) at 200 ppm (Plutella xylostella) | percent control (mortality, anti-feedant effect or growth inhibition) at 200 ppm (Spodoptera littoralis)

C[C@H](NC(=O)c1cc(Cl)cc(S(=O)(=O)C(F)(F)F)c1)c1ncnn1-c1ccc(=O)n(C)n1 [P20, 3-chloro-N-[(1S)-1-[2-(1-methyl-6-oxo-pyridazin-3-yl)-1,2,4-triazol-3-yl]ethyl]-5-(trifluoromethylsulfonyl) benzamide]
≥ 80%: percent control (mortality, anti-feedant effect or growth inhibition) at 200 ppm (Chilo suppressalis) | percent control (mortality or growth inhibition) at 200 ppm (Diabrotica balteata) | percent effect (mortality or growth inhibition) at 200 ppm (Euschistus heros) | mortality at 200 ppm (Myzus persicae [1]) | mortality at 12 ppm (Myzus persicae [2]) | percent control (mortality or growth inhibition) at 200 ppm (Plutella xylostella) | percent control (mortality, anti-feedant effect or growth inhibition) at 200 ppm (Spodoptera littoralis)

C[C@@H](c1ncnn1C1=NN(C)C(=O)CC1)N(C)C(=O)c1cc(Cl)cc(C(F)(F)F)c1 [P23, 3-chloro-N-methyl-N-[(1S)-1-[2-(1-methyl-6-oxo-4,5-dihydropyridazin-3-yl)-1,2,4-triazol-3-yl]ethyl]-5-(trifluoromethyl)benzamide]
≥ 80%: percent control (mortality, anti-feedant effect or growth inhibition) at 200 ppm (Chilo suppressalis) | percent control (mortality or growth inhibition) at 200 ppm (Diabrotica balteata) | percent effect (mortality or growth inhibition) at 200 ppm (Euschistus heros) | mortality at 200 ppm (Myzus persicae [1]) | mortality at 12 ppm (Myzus persicae [2]) | percent control (mortality or growth inhibition) at 200 ppm (Plutella xylostella) | percent control (mortality, anti-feedant effect or growth inhibition) at 200 ppm (Spodoptera littoralis)

C[C@H](NC(=O)c1cc(Cl)cc(OC(F)(F)F)c1)c1ncnn1-c1ccc(=O)n(C)n1 [P26, 3-chloro-N-[(1S)-1-[2-(1-methyl-6-oxo-pyridazin-3-yl)-1,2,4-triazol-3-yl]ethyl]-5-(trifluoromethoxy)benzamide]
≥ 80%: percent control (mortality, anti-feedant effect or growth inhibition) at 200 ppm (Chilo suppressalis) | percent control (mortality or growth inhibition) at 200 ppm (Diabrotica balteata) | percent effect (mortality or growth inhibition) at 200 ppm (Euschistus heros) | mortality at 200 ppm (Myzus persicae [1]) | mortality at 12 ppm (Myzus persicae [2]) | percent control (mortality or growth inhibition) at 200 ppm (Plutella xylostella) | percent control (mortality, anti-feedant effect or growth inhibition) at 200 ppm (Spodoptera littoralis)

C[C@H](NC(=O)c1cc(Cl)cc(Br)c1)c1ncnn1-c1ccc(=O)n(C)n1 [P27, 3-bromo-5-chloro-N-[(1S)-1-[2-(1-methyl-6-oxo-pyridazin-3-yl)-1,2,4-triazol-3-yl]ethyl]benzamide]
≥ 80%: percent control (mortality, anti-feedant effect or growth inhibition) at 200 ppm (Chilo suppressalis) | percent control (mortality or growth inhibition) at 200 ppm (Diabrotica balteata) | percent effect (mortality or growth inhibition) at 200 ppm (Euschistus heros) | mortality at 200 ppm (Myzus persicae [1]) | mortality at 12 ppm (Myzus persicae [2]) | percent control (mortality or growth inhibition) at 200 ppm (Plutella xylostella) | percent control (mortality, anti-feedant effect or growth inhibition) at 200 ppm (Spodoptera littoralis)

C[C@H](NC(=O)c1cc(Cl)cc(I)c1)c1ncnn1-c1ccc(=O)n(C)n1 [P28, 3-chloro-5-iodo-N-[(1S)-1-[2-(1-methyl-6-oxo-pyridazin-3-yl)-1,2,4-triazol-3-yl]ethyl]benzamide]
≥ 80%: percent control (mortality, anti-feedant effect or growth inhibition) at 200 ppm (Chilo suppressalis) | percent control (mortality or growth inhibition) at 200 ppm (Diabrotica balteata) | percent effect (mortality or growth inhibition) at 200 ppm (Euschistus heros) | mortality at 200 ppm (Myzus persicae [1]) | mortality at 12 ppm (Myzus persicae [2]) | percent control (mortality or growth inhibition) at 200 ppm (Plutella xylostella) | percent control (mortality, anti-feedant effect or growth inhibition) at 200 ppm (Spodoptera littoralis)

C[C@H](NC(=O)c1cc(Br)cc(Br)c1)c1ncnn1-c1ccc(=O)n(C)n1 [P29, 3,5-dibromo-N-[(1S)-1-[2-(1-methyl-6-oxo-pyridazin-3-yl)-1,2,4-triazol-3-yl]ethyl]benzamide]
≥ 80%: percent control (mortality, anti-feedant effect or growth inhibition) at 200 ppm (Chilo suppressalis) | percent control (mortality or growth inhibition) at 200 ppm (Diabrotica balteata) | percent effect (mortality or growth inhibition) at 200 ppm (Euschistus heros) | mortality at 200 ppm (Myzus persicae [1]) | mortality at 12 ppm (Myzus persicae [2]) | percent control (mortality or growth inhibition) at 200 ppm (Plutella xylostella) | percent control (mortality, anti-feedant effect or growth inhibition) at 200 ppm (Spodoptera littoralis)

C[C@H](NC(=O)c1cc(Br)cc(I)c1)c1ncnn1-c1ccc(=O)n(C)n1 [P30, 3-bromo-5-iodo-N-[(1S)-1-[2-(1-methyl-6-oxo-pyridazin-3-yl)-1,2,4-triazol-3-yl]ethyl]benzamide]
≥ 80%: percent control (mortality, anti-feedant effect or growth inhibition) at 200 ppm (Chilo suppressalis) | percent control (mortality or growth inhibition) at 200 ppm (Diabrotica balteata) | percent effect (mortality or growth inhibition) at 200 ppm (Euschistus heros) | mortality at 200 ppm (Myzus persicae [1]) | mortality at 12 ppm (Myzus persicae [2]) | percent control (mortality or growth inhibition) at 200 ppm (Plutella xylostella) | percent control (mortality, anti-feedant effect or growth inhibition) at 200 ppm (Spodoptera littoralis)

CC(NC(=O)c1cc(C(F)(F)F)nc(C2(C#N)CC2)c1)c1nccnc1-c1ccc(=O)n(C)n1 (stereo not drawn) [P32, 2-(1-cyanocyclopropyl)-N-[1-[3-(1-methyl-6-oxo-pyridazin-3-yl)pyrazin-2-yl]ethyl]-6-(trifluoromethyl)pyridine-4-carboxamide]
≥ 80%: percent control (mortality, anti-feedant effect or growth inhibition) at 200 ppm (Chilo suppressalis) | percent control (mortality or growth inhibition) at 200 ppm (Diabrotica balteata) | percent effect (mortality or growth inhibition) at 200 ppm (Euschistus heros) | mortality at 200 ppm (Myzus persicae [1]) | mortality at 12 ppm (Myzus persicae [2]) | percent control (mortality or growth inhibition) at 200 ppm (Plutella xylostella) | percent control (mortality, anti-feedant effect or growth inhibition) at 200 ppm (Spodoptera littoralis)

C[C@H](NC(=O)c1cc(C(F)(F)F)nc(C2(C#N)CC2)c1)c1ncnn1-c1ccc(=O)n(C)n1 [P33, 2-(1-cyanocyclopropyl)-N-[(1S)-1-[2-(1-methyl-6-oxo-pyridazin-3-yl)-1,2,4-triazol-3-yl]ethyl]-6-(trifluoromethyl)pyridine-4-carboxamide]
≥ 80%: percent control (mortality, anti-feedant effect or growth inhibition) at 200 ppm (Chilo suppressalis) | percent control (mortality or growth inhibition) at 200 ppm (Diabrotica balteata) | percent effect (mortality or growth inhibition) at 200 ppm (Euschistus heros) | mortality at 200 ppm (Myzus persicae [1]) | mortality at 12 ppm (Myzus persicae [2]) | percent control (mortality or growth inhibition) at 200 ppm (Plutella xylostella) | percent control (mortality, anti-feedant effect or growth inhibition) at 200 ppm (Spodoptera littoralis)

C[C@H](NC(=O)c1cc(Br)cc(OC(F)(F)F)c1)c1ncnn1-c1ccc(=O)n(C)n1 [P40, 3-bromo-N-[(1S)-1-[2-(1-methyl-6-oxo-pyridazin-3-yl)-1,2,4-triazol-3-yl]ethyl]-5-(trifluoromethoxy)benzamide]
≥ 80%: percent control (mortality, anti-feedant effect or growth inhibition) at 200 ppm (Chilo suppressalis) | percent control (mortality or growth inhibition) at 200 ppm (Diabrotica balteata) | percent effect (mortality or growth inhibition) at 200 ppm (Euschistus heros) | mortality at 200 ppm (Myzus persicae [1]) | mortality at 12 ppm (Myzus persicae [2]) | percent control (mortality or growth inhibition) at 200 ppm (Plutella xylostella) | percent control (mortality, anti-feedant effect or growth inhibition) at 200 ppm (Spodoptera littoralis)

C[C@H](NC(=O)c1cc(C(F)(F)F)cc(C(C)(C)C#N)c1)c1ncnn1-c1ccc(=O)n(C)n1 [P43, 3-(1-cyano-1-methyl-ethyl)-N-[(1S)-1-[2-(1-methyl-6-oxo-pyridazin-3-yl)-1,2,4-triazol-3-yl]ethyl]-5-(trifluoromethyl)benzamide]
≥ 80%: percent control (mortality, anti-feedant effect or growth inhibition) at 200 ppm (Chilo suppressalis) | percent control (mortality or growth inhibition) at 200 ppm (Diabrotica balteata) | percent effect (mortality or growth inhibition) at 200 ppm (Euschistus heros) | mortality at 200 ppm (Myzus persicae [1]) | mortality at 12 ppm (Myzus persicae [2]) | percent control (mortality or growth inhibition) at 200 ppm (Plutella xylostella) | percent control (mortality, anti-feedant effect or growth inhibition) at 200 ppm (Spodoptera littoralis)

Reference: patent US20250042875A1, “PESTICIDALLY ACTIVE PYRIDAZINONE COMPOUNDS” (SYNGENTA CROP PROTECTION AG, priority 2021, published 2025)
